US20080085886A1, “Aza-benzofuranyl compounds and methods of use” (GENENTECH, INC., priority 2006, published 2008)
Where a name gives a salt, the structure may show the parent alone.

Columns and labels:
[1] = test system: HCT 116 human colorectal carcinoma / A375 human malignant melanoma cell lines; test: Cell proliferation assay (CellTiter-Glo), Example 3; format: cell-based; details: in either one of the cell lines (HCT 116, A375), 72 h
Procedure: Example 3 Cell Proliferation Assay
Compounds are tested in a cell proliferation assay using the following cell lines:
HCT 116 human colorectal carcinoma (ATCC)
(§1) A375 human malignant melanoma (ATCC)
(§2) Both cell lines are maintained in DMEM/F12 (1:1) media (Gibco) supplemented with 10% FCS at 37° C. in a 5% CO2 humidified incubator.
Cells are seeded in 96-well plates at 2,000 cells/well and after 24 hours they are exposed to different concentrations of compounds in 0.83% DMSO. Cells are grown for a further 72 h, and an equal volume of CellTiter-Glo reagent (Promega) is added to each well. This lyses the cells and generates a luminescent signal proportional to the amount of ATP released (and therefore proportional to the number of cells in the well) that can be detected using a multiwell luminometer.
EC50 values are calculated using the XLfit software package (version 2.0.5).

[2] = test system: cellular p-ERK in HCT116 human colorectal carcinoma / A375 human malignant melanoma cell lines; test: Phospho-ERK cell-based assay (ELISA), Example 4; details: in either one of the cell lines (HCT116, A375), 2 h or 24 h exposure
Procedure: Example 4 Phospho-ERK Cell-Based Assay
Compounds are tested in a cell-based phospho-ERK ELISA using the following cell lines:
HCT116 human colorectal carcinoma (ATCC)
as §1, §2
Cells are seeded in 96-well plates at 2,000 cells/well and after 24 h they are exposed to different concentrations of compounds in 0.83% DMSO. Cells are grown for a further 2 h or 24 h, fixed with formaldehyde (2% final) and permeabilised with methanol. Following blocking with TBST-3% BSA, fixed cells are incubated with primary antibody (anti-phospho ERK from rabbit) over-night at 4° C. Cells are incubated with Propidium Iodide (DNA fluorescent dye) and detection of cellular p-ERK is performed using an anti-rabbit secondary antibody conjugated to the fluorescent Alexa Fluor 488 dye (Molecular probes). The fluorescence is analysed using the Acumen Explorer (TTP Labtech), a laser-scanning microplate cytometer, and the Alexa Fluor 488 signal is normalised to the PI signal (proportional to cell number).
The EC50 is defined as the concentration at which a given compound achieves a signal half way between the baseline and the maximum response. EC50 values are calculated using the XLfit software package (version 2.0.5).

O=C(NO)c1oc2ccncc2c1Nc1ccc(I)cc1F [Example 24, 3-(2-Fluoro-4-iodo-phenylamino)-furo[3,2-c]pyridine-2-carboxylic acid hydroxyamide] showed an EC50 [1] of under 10 µM and an EC50 [2] of under 10 µM.

O=C(NOC[C@H](O)CO)c1oc2c(Cl)cncc2c1Nc1ccc(I)cc1F [Example 138, 7-Chloro-3-(2-fluoro-4-iodo-phenylamino)-furo[3,2-c]pyridine-2-carboxylic acid ((R)-2,3-dihydroxy-propoxy)-amide] gave an EC50 [1] of under 10 µM and an EC50 [2] of under 10 µM.

With O=C(NOC[C@H](O)CO)c1oc2ccncc2c1Nc1cc(F)c(I)cc1F [Example 15, 3-(2,5-Difluoro-4-iodo-phenylamino)-furo[3,2-c]pyridine-2-carboxylic acid ((R)-2,3-dihydroxy-propoxy)-amide] the EC50 [1] was under 10 µM and the EC50 [2] was under 10 µM.

With O=C(NOC1CNC1)c1oc2ccncc2c1Nc1ccc(I)cc1F [Example 41, 3-(2-Fluoro-4-iodo-phenylamino)-furo[3,2-c]pyridine-2-carboxylic acid (azetidin-3-yloxy)-amide mono formate salt] the EC50 [1] was under 10 µM and the EC50 [2] was under 10 µM.

Work on C#Cc1ccc(Nc2c(C(=O)NOC[C@H](O)CO)oc3ccncc23)c(F)c1 [Example 7, 3-(4-Ethynyl-2-fluoro-phenylamino)-furo[3,2-c]pyridine-2-carboxylic acid ((R)-2,3-dihydroxy-propoxy)-amide] yielded an EC50 [1] of under 10 µM and an EC50 [2] of under 10 µM.

O=C(NOCCO)c1oc2c(Cl)cncc2c1Nc1ccc(I)cc1F [Example 39, 7-Chloro-3-(2-fluoro-4-iodo-phenyl-amino)-furo[3,2-c]pyridine-2-carboxylic acid (2-hydroxy-ethoxy)-amide] showed an EC50 [1] of under 10 µM and an EC50 [2] of under 10 µM.

O=C(c1oc2ccncc2c1Nc1ccc(I)cc1F)N1C[C@H](O)[C@@H](O)[C@H]1CO [Example 160, (3-(2-fluoro-4-iodophenylamino)furo[3,2-c]pyridin-2-yl)((2R,3S,4S)-3,4-dihydroxy-2-(hydroxymethyl)pyrrolidin-1-yl)methanone] showed an EC50 [1] of under 10 µM and an EC50 [2] of under 10 µM.

In the case of O=C(NOC1CCOCC1)c1oc2ccncc2c1Nc1ccc(I)cc1F [Example 25, 3-(2-Fluoro-4-iodo-phenylamino)-furo[3,2-c]pyridine-2-carboxylic acid (tetrahydro-pyran-4-yloxy)-amide], the EC50 [1] is reported as under 10 µM and the EC50 [2] is reported as under 10 µM.

Molecule O=C(NOCCO)c1oc2ccncc2c1Nc1ccc(I)cc1F [Example 10, 3-(2-Fluoro-4-iodo-phenylamino)-furo[3,2-c]pyridine-2-carboxylic acid (2-hydroxy-ethoxy)-amide] has an EC50 [1] of under 10 µM and an EC50 [2] of under 10 µM.

Molecule NCCONC(=O)c1oc2ccncc2c1Nc1ccc(I)cc1F [Example 31, 3-(2-Fluoro-4-iodo-phenylamino)-furo[3,2-c]pyridine-2-carboxlic acid (2-amino-ethoxy)-amide] has an EC50 [1] of under 10 µM and an EC50 [2] of under 10 µM.

O=C(NOC1CCNCC1)c1oc2ccncc2c1Nc1ccc(I)cc1F [Example 20, 3-(2-Fluoro-4-iodo-phenylamino)-furo[3,2-c]pyridine-2-carboxylic acid (piperidin-4-yloxy)-amide mono formate salt] showed an EC50 [1] of under 10 µM and an EC50 [2] of under 10 µM.

For O=C(NOCCO)c1oc2c(-c3ccccc3)cncc2c1Nc1ccc(I)cc1F [Example 133, 3-(2-Fluoro-4-iodo-phenylamino)-7-phenyl-furo[3,2-c]pyridine-2-carboxylic acid (2-hydroxy-ethoxy)-amide], the EC50 [1] was under 10 µM and the EC50 [2] was under 10 µM.

Work on Cc1cncc2c(Nc3ccc(I)cc3F)c(C(=O)NOCCO)oc12 [Example 134, 3-(2-Fluoro-4-iodo-phenylamino)-7-methyl-furo[3,2-c]pyridine-2-carboxylic acid (2-hydroxy-ethoxy)-amide] yielded an EC50 [1] of under 10 µM and an EC50 [2] of under 10 µM.

With O=C(NOC[C@H](O)CO)c1oc2ccncc2c1Nc1ccc(I)cc1Cl [Example 13, 3-(2-Chloro-4-iodo-phenylamino)-furo[3,2-c]pyridine-2-carboxylic acid ((R)-2,3-dihydroxy-propoxy)-amide] the EC50 [1] was under 10 µM and the EC50 [2] was under 10 µM.

For CC(C)(C)OC(=O)N1CCC(ONC(=O)c2oc3ccncc3c2Nc2ccc(I)cc2F)CC1 [Example 16, 4-{[3-(2-Fluoro-4-iodo-phenylamino)-furo[3,2-c]pyridine-2-carbonyl]aminooxy}-piperidine-1-carboxylic acid tert-butyl ester], the EC50 [1] was under 10 µM and the EC50 [2] was under 10 µM.

CN(c1ccc(I)cc1F)c1c(C(=O)NOCCO)oc2ccncc12 [Example 22, 3-[(2-Fluoro-4-iodo-phenyl)-methyl-amino]-furo[3,2-c]pyridine-2-carboxylic acid (2-hydroxy-ethoxy)-amide] showed an EC50 [1] of under 10 µM and an EC50 [2] of under 10 µM.

For O=C(c1oc2ccncc2c1Nc1ccc(I)cc1F)N1CC(O)CO1 (stereo not drawn) [Example 28, [3-(2-Fluoro-4-iodo-phenylamino)-furo[3,2-c]pyridin-2-yl]-(4-hydroxy-isoxazolidin-2-yl)-methanone], the EC50 [1] was under 10 µM and the EC50 [2] was under 10 µM.

With O=C(NOC[C@H](O)CO)c1oc2c(Br)cncc2c1Nc1ccc(I)cc1F [Example 18, 7-Bromo-3-(2-fluoro-4-iodo-phenylamino)-furo[3,2-c]pyridine-2-carboxylic acid ((R)-2,3-dihydroxy-propoxy)amide] the EC50 [1] was under 10 µM and the EC50 [2] was under 10 µM.

Molecule O=C(NOC[C@@H]1CCCN1)c1oc2ccncc2c1Nc1ccc(I)cc1F [Example 141, 3-(2-Fluoro-4-iodo-phenylamino)-furo[3,2-c]pyridine-2-carboxylic acid ((S)-1-pyrrolidin-2-ylmethoxy)-amide] has an EC50 [1] of under 10 µM and an EC50 [2] of under 10 µM.

With CC(C)(CO)ONC(=O)c1oc2ccncc2c1Nc1ccc(I)cc1F [Example 113, N-(1-hydroxy-2-methylpropan-2-yloxy)-3-(2-Fluoro-4-iodo-phenylamino)furo[3,2-c]pyridine-2-carboxamide] the EC50 [2] was under 10 µM.

With CONC(=O)c1oc2ccncc2c1Nc1ccc(I)cc1F [Example 29, 3-(2-Fluoro-4-iodo-phenylamino)-furo[3,2-c]pyridine-2-carboxylic acid methoxy-amide] the EC50 [2] was under 10 µM.

For O=C(NOCCCO)c1oc2ccncc2c1Nc1ccc(I)cc1F [Example 45, (2-Fluoro-4-iodo-phenyl amino)-N-(3-hydroxypropoxy)furo[3,2-c]pyridine-2-carboxamide], the EC50 [2] was under 10 µM.

Molecule O=C(c1oc2ccncc2c1Nc1ccc(I)cc1F)N1CC(O)C1 [Example 122, (3-(2-fluoro-4-iodophenylamino)furo[3,2-c]pyridin-2-yl)(3-hydroxyazetidin-1-yl)methanone] has an EC50 [2] of under 10 µM.

In the case of O=C(c1oc2ccncc2c1Nc1ccc(I)cc1F)N1CC[C@H](O)C1 [Example 70, (3-(2-fluoro-4-iodophenylamino)furo[3,2-c]pyridin-2-yl)((S)-3-hydroxypyrrolidin-1-yl)methanone], the EC50 [2] is reported as under 10 µM.

In the case of CC(C)(C)ONC(=O)c1oc2ccncc2c1Nc1ccc(I)cc1F [Example 99, (2-Fluoro-4-iodo-phenylamino)-N-tert-butoxyfuro[3,2-c]pyridine-2-carboxamide], the EC50 [2] is reported as under 10 µM.

With O=C(c1oc2ccncc2c1Nc1ccc(I)cc1F)N1C[C@@H](O)[C@@H](O)C1 [Example 73, (3-(2-fluoro-4-iodophenylamino)furo[3,2-c]pyridin-2-yl)((3S,4R)-3,4-dihydroxypyrrolidin-1-yl)methanone] the EC50 [2] was under 10 µM.

O=C(c1oc2ccncc2c1Nc1ccc(I)cc1F)N1CC[C@@H](O)[C@H]1CO [Example 123] showed an EC50 [2] of under 10 µM.

Molecule O=C(NCCCONC(=O)c1oc2ccncc2c1Nc1ccc(I)cc1F)c1cccnc1 [Example 47] has an EC50 [2] of under 10 µM.

O=C(NCCCONC(=O)c1oc2ccncc2c1Nc1ccc(I)cc1F)c1ccncc1 [Example 48, (2-Fluoro-4-iodo-phenyl amino)-N-[3-(isonicotinamide)propoxy] furo[3,2-c]pyridine-2-carboxamide] showed an EC50 [2] of under 10 µM.

In the case of C[C@@H](CO)NC(=O)c1oc2ccncc2c1Nc1ccc(I)cc1F [Example 76, 3-(2-fluoro-4-iodophenylamino)-N-((S)-1-hydroxypropan-2-yl)furo[3,2-c]pyridine-2-carboxamide], the EC50 [2] is reported as under 10 µM.

With O=C(c1oc2ccncc2c1Nc1ccc(I)cc1F)N1CCC[C@@H]1CO [Example 87, (3-(2-fluoro-4-iodophenylamino)furo[3,2-c]pyridin-2-yl)((R)-2-(hydroxylmethyl)pyrrolidin-1-yl)methanone] the EC50 [2] was under 10 µM.

C[C@H](O)CONC(=O)c1oc2c(F)cncc2c1Nc1ccc(I)cc1F [Example 155, 7-Fluoro-3-(2-fluoro-4-iodo-phenylamino)-furo[3,2-c]pyridine-2-carboxylic acid ((S)-2-hydroxy-propoxy)-amide] gave an EC50 [2] of under 10 µM.
